# Measured values reported in ChEMBL document CHEMBL1201862, “PubChem BioAssay data set” (2004).
# Several values for one entry are separate records, joined by “and”; a condition that tells them apart may be missing. Identical values can stand only once.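 Exposure lasted 48 hours, with cells grown in 96-well plates and compounds tested at five concentrations. Abbreviation: GI50, concentration required for 50% inhibition of growth.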 Activity calls are given as the source filed them. No stated cut-off is given here; in the data, active = GI50 up to about 1.1 µM and inactive = higher.
# Experiments:
# Test in all cases: DTP human tumour cell line panel, 48 h
# 786-0 = test system: 786-0
# A498 = test system: A498
# A549 = test system: A549
# ACHN = test system: ACHN
# BT-549 = test system: BT-549
# CAKI-1 = test system: CAKI-1
# CCRF-CEM = test system: CCRF-CEM
# COLO 205 = test system: COLO 205
# DU-145 = test system: DU-145
# EKVX = test system: EKVX
# HCC 2998 = test system: HCC 2998
# HCT-116 = test system: HCT-116
# HCT-15 = test system: HCT-15
# HL-60 = test system: HL-60
# HOP-62 = test system: HOP-62
# HOP-92 = test system: HOP-92
# HT-29 = test system: HT-29
# Hs-578T = test system: Hs-578T
# IGROV-1 = test system: IGROV-1
# K562 = test system: K562
# KM12 = test system: KM12
# LOX IMVI = test system: LOX IMVI
# M14 = test system: M14
# MCF7 = test system: MCF7
# MDA-MB-231 = test system: MDA-MB-231
# MDA-MB-435 = test system: MDA-MB-435
# MDA-N = test system: MDA-N
# MOLT-4 = test system: MOLT-4
# Malme-3M = test system: Malme-3M
# NCI-H226 = test system: NCI-H226
# NCI-H23 = test system: NCI-H23
# NCI-H460 = test system: NCI-H460
# NCI-H522 = test system: NCI-H522
# NCI/ADR-RES = test system: NCI/ADR-RES
# OVCAR-3 = test system: OVCAR-3
# OVCAR-4 = test system: OVCAR-4
# OVCAR-5 = test system: OVCAR-5
# OVCAR-8 = test system: OVCAR-8
# PC-3 = test system: PC-3
# RPMI-8226 = test system: RPMI-8226
# SF-268 = test system: SF-268
# SF-295 = test system: SF-295
# SF-539 = test system: SF-539
# SK-MEL-28 = test system: SK-MEL-28
# SK-MEL-2 = test system: SK-MEL-2
# SK-MEL-5 = test system: SK-MEL-5
# SK-OV-3 = test system: SK-OV-3
# SN12C = test system: SN12C
# SNB-19 = test system: SNB-19
# SNB-75 = test system: SNB-75
# SR = test system: SR
# T47D = test system: T47D
# TK-10 = test system: TK-10
# U-251 = test system: U-251
# UACC-257 = test system: UACC-257
# UACC-62 = test system: UACC-62
# UO-31 = test system: UO-31
# RXF 393 = test system: RXF 393
# SW-620 = test system: SW-620
compound,measurement,setting,value
CCOC(=O)c1c(Br)c(-c2ccc([N+](=O)[O-])cc2)c(Br)n1C,GI50,786-0,> 10 µM (inactive)
same,GI50,A498,> 10 µM (inactive)
same,GI50,A549,> 10 µM (inactive)
same,GI50,ACHN,> 10 µM (inactive)
same,GI50,BT-549,> 10 µM (inactive)
same,GI50,CAKI-1,> 10 µM (inactive)
same,GI50,CCRF-CEM,> 10 µM (inactive)
same,GI50,COLO 205,> 10 µM (inactive)
same,GI50,DU-145,> 10 µM (inactive)
same,GI50,EKVX,9.55 µM (inactive)
same,GI50,HCC 2998,> 10 µM (inactive)
same,GI50,HCT-116,> 10 µM (inactive)
same,GI50,HCT-15,> 10 µM
same,GI50,HL-60,> 10 µM (inactive)
same,GI50,HOP-62,> 10 µM (inactive)
same,GI50,HOP-92,2.47 µM (inactive)
same,GI50,HT-29,> 10 µM (inactive)
same,GI50,Hs-578T,5.06 µM (inactive)
same,GI50,IGROV-1,> 10 µM (inactive)
same,GI50,K562,> 10 µM (inactive)
same,GI50,KM12,> 10 µM (inactive)
same,GI50,LOX IMVI,> 10 µM (inactive)
same,GI50,M14,> 10 µM (inactive)
same,GI50,MCF7,> 10 µM (inactive)
same,GI50,MDA-MB-231,> 10 µM (inactive)
same,GI50,MDA-MB-435,> 10 µM (inactive)
same,GI50,MDA-N,> 10 µM (inactive)
same,GI50,MOLT-4,> 10 µM (inactive)
same,GI50,Malme-3M,> 10 µM (inactive)
same,GI50,NCI-H226,> 10 µM (inactive)
same,GI50,NCI-H23,> 10 µM (inactive)
same,GI50,NCI-H460,> 10 µM (inactive)
same,GI50,NCI-H522,> 10 µM (inactive)
same,GI50,NCI/ADR-RES,> 10 µM (inactive)
same,GI50,OVCAR-3,> 10 µM (inactive)
same,GI50,OVCAR-4,> 10 µM (inactive)
same,GI50,OVCAR-5,> 10 µM (inactive)
same,GI50,OVCAR-8,> 10 µM (inactive)
same,GI50,PC-3,> 10 µM (inactive)
same,GI50,RPMI-8226,> 10 µM (inactive)
same,GI50,SF-268,> 10 µM (inactive)
same,GI50,SF-295,> 10 µM (inactive)
same,GI50,SF-539,> 10 µM (inactive)
same,GI50,SK-MEL-28,> 10 µM (inactive)
same,GI50,SK-MEL-2,> 10 µM (inactive)
same,GI50,SK-MEL-5,> 10 µM (inactive)
same,GI50,SK-OV-3,> 10 µM (inactive)
same,GI50,SN12C,9.06 µM (inactive)
same,GI50,SNB-19,> 10 µM (inactive)
same,GI50,SNB-75,2.49 µM (inactive)
same,GI50,SR,> 10 µM (inactive)
same,GI50,T47D,> 10 µM (inactive)
same,GI50,TK-10,> 10 µM (inactive)
same,GI50,U-251,> 10 µM (inactive)
same,GI50,UACC-257,> 10 µM (inactive)
same,GI50,UACC-62,7.28 µM (inactive)
same,GI50,UO-31,9.16 µM (inactive)
O=C(Nn1c(-c2ccccc2)nc2ccccc2c1=O)c1ccc(O)cc1,GI50,786-0,> 100 µM (inactive)
same,GI50,A498,> 100 µM (inactive)
same,GI50,A549,> 100 µM (inactive)
same,GI50,ACHN,> 100 µM (inactive)
same,GI50,BT-549,> 100 µM (inactive)
same,GI50,CCRF-CEM,> 100 µM (inactive)
same,GI50,COLO 205,> 100 µM (inactive)
same,GI50,DU-145,> 100 µM (inactive)
same,GI50,EKVX,61 µM (inactive)
same,GI50,HCC 2998,> 100 µM (inactive)
same,GI50,HCT-116,> 100 µM (inactive)
same,GI50,HCT-15,> 100 µM
same,GI50,HL-60,> 100 µM (inactive)
same,GI50,HOP-62,> 100 µM (inactive)
same,GI50,HOP-92,> 100 µM (inactive)
same,GI50,HT-29,> 100 µM (inactive)
same,GI50,Hs-578T,> 100 µM (inactive)
same,GI50,IGROV-1,> 100 µM (inactive)
same,GI50,K562,> 100 µM (inactive)
same,GI50,KM12,> 100 µM (inactive)
same,GI50,M14,> 100 µM (inactive)
same,GI50,MCF7,> 100 µM (inactive)
same,GI50,MDA-MB-231,> 100 µM (inactive)
same,GI50,MDA-MB-435,> 100 µM (inactive)
same,GI50,MDA-N,> 100 µM (inactive)
same,GI50,MOLT-4,> 100 µM (inactive)
same,GI50,Malme-3M,> 100 µM (inactive)
same,GI50,NCI-H226,> 100 µM (inactive)
same,GI50,NCI-H23,> 100 µM (inactive)
same,GI50,NCI-H460,> 100 µM (inactive)
same,GI50,NCI-H522,> 100 µM (inactive)
same,GI50,NCI/ADR-RES,> 100 µM (inactive)
same,GI50,OVCAR-3,> 100 µM (inactive)
same,GI50,OVCAR-4,> 100 µM (inactive)
same,GI50,OVCAR-5,> 100 µM (inactive)
same,GI50,OVCAR-8,> 100 µM (inactive)
same,GI50,PC-3,> 100 µM (inactive)
same,GI50,RPMI-8226,> 100 µM (inactive)
same,GI50,RXF 393,> 100 µM (inactive)
same,GI50,SF-268,> 100 µM (inactive)
same,GI50,SF-295,> 100 µM (inactive)
same,GI50,SF-539,> 100 µM (inactive)
same,GI50,SK-MEL-28,> 100 µM (inactive)
same,GI50,SK-MEL-5,> 100 µM (inactive)
same,GI50,SK-OV-3,> 100 µM (inactive)
same,GI50,SN12C,> 100 µM (inactive)
same,GI50,SNB-19,> 100 µM (inactive)
same,GI50,SNB-75,> 100 µM (inactive)
same,GI50,SR,> 100 µM (inactive)
same,GI50,SW-620,> 100 µM (inactive)
same,GI50,T47D,> 100 µM (inactive)
same,GI50,TK-10,> 100 µM (inactive)
same,GI50,U-251,> 100 µM (inactive)
same,GI50,UACC-257,> 100 µM (inactive)
same,GI50,UACC-62,> 100 µM (inactive)
same,GI50,UO-31,> 100 µM (inactive)
Cc1ccc(/C=C2/N/C(=N\N=C/C(O)C(O)C(O)C(O)CO)NC2=O)cc1 (stereo not drawn),GI50,786-0,> 100 µM (inactive)
same,GI50,A498,> 100 µM (inactive)
same,GI50,A549,> 100 µM (inactive)
same,GI50,ACHN,> 100 µM (inactive)
same,GI50,BT-549,> 100 µM (inactive)
same,GI50,CAKI-1,> 100 µM (inactive)
same,GI50,CCRF-CEM,95.3 µM (inactive)
same,GI50,COLO 205,> 100 µM (inactive)
same,GI50,DU-145,> 100 µM (inactive)
same,GI50,EKVX,> 100 µM (inactive)
same,GI50,HCC 2998,> 100 µM (inactive)
same,GI50,HCT-116,> 100 µM (inactive)
same,GI50,HCT-15,> 100 µM and 69.8 µM
same,GI50,HL-60,> 100 µM (inactive)
same,GI50,HOP-62,> 100 µM (inactive)
same,GI50,HOP-92,> 100 µM (inactive)
same,GI50,HT-29,> 100 µM (inactive)
same,GI50,Hs-578T,> 100 µM (inactive)
same,GI50,IGROV-1,> 100 µM (inactive)
same,GI50,KM12,> 100 µM (inactive)
same,GI50,LOX IMVI,> 100 µM (inactive)
same,GI50,M14,> 100 µM (inactive)
same,GI50,MCF7,> 100 µM (inactive)
same,GI50,MDA-MB-231,> 100 µM (inactive)
same,GI50,MDA-MB-435,> 100 µM (inactive)
same,GI50,MDA-N,> 100 µM (inactive)
same,GI50,Malme-3M,> 100 µM (inactive)
same,GI50,NCI-H226,> 100 µM (inactive)
same,GI50,NCI-H23,> 100 µM (inactive)
same,GI50,NCI-H460,> 100 µM (inactive)
same,GI50,NCI-H522,> 100 µM (inactive)
same,GI50,NCI/ADR-RES,> 100 µM (inactive)
same,GI50,OVCAR-3,> 100 µM (inactive)
same,GI50,OVCAR-5,> 100 µM (inactive)
same,GI50,OVCAR-8,> 100 µM (inactive)
same,GI50,PC-3,> 100 µM (inactive)
same,GI50,RPMI-8226,> 100 µM (inactive)
same,GI50,RXF 393,> 100 µM (inactive)
same,GI50,SF-268,> 100 µM (inactive)
same,GI50,SF-295,> 100 µM (inactive)
same,GI50,SF-539,> 100 µM (inactive)
same,GI50,SK-MEL-28,> 100 µM (inactive)
same,GI50,SK-MEL-2,> 100 µM (inactive)
same,GI50,SK-MEL-5,> 100 µM (inactive)
same,GI50,SK-OV-3,> 100 µM (inactive)
same,GI50,SN12C,> 100 µM (inactive)
same,GI50,SNB-19,> 100 µM (inactive)
same,GI50,SNB-75,> 100 µM (inactive)
same,GI50,SR,> 100 µM (inactive)
same,GI50,SW-620,> 100 µM (inactive)
same,GI50,T47D,> 100 µM (inactive) and 99.1 µM (inactive)
same,GI50,TK-10,> 100 µM (inactive)
same,GI50,U-251,> 100 µM (inactive)
same,GI50,UACC-257,> 100 µM (inactive)
same,GI50,UO-31,> 100 µM (inactive)
